# Reference: patent publication US7550438B2, “Methods for production of growth-promoting proteins and peptides for kidney epithelial cells” (The University of Chicago, priority 1997, dated 2009)
# Assays:
# BSC-1 cells [1] = test: Inhibition of WGF and WGF-derived peptide mitogenesis in BSC-1 cells; type: cell-based, African green monkey; details: TGF-β2 6 ng/ml; exogenous 14-Ser up to 5 μg/ml
# Text: In these studies the pentamers, PQGNH (SEQ ID NO: 36) or YPQGN (SEQ ID NO: 3) were synthesized, purified by HPLC and then assayed for growth-promoting activity. […] Because the pentamers are not mitogenic, when they bind to the site, growth is not observed. After pentamers are bound to the site, the pentamers appear to prevent the hexapeptide from gaining access to the membrane.
# Transforming growth factor (TGF)-β2 is an autocrine growth inhibitor secreted by BSC-1 cells that limits proliferation in culture. Exogenous TGF-β2 was added to the culture medium to determine its capacity to inhibit the growth-promoting effect of 14-Ser. TGF-β2 at a concentration of 1 ng/ml was sufficient to abolish the 25% stimulation of growth induced by 14-Ser. At a TGF-β2 concentration of 2 ng/ml, growth was inhibited by 30% in the presence or absence of 14-Ser; at 10 ng/ml, inhibition was 60%.
# Because TGF-β2 inhibits proliferation induced by diverse mitogens, a more specific inhibitor was sought. […] Cells were preincubated for 30 minutes with the pentapeptide YPQGN (SEQ ID NO: 3). The culture medium was then aspirated, the monolayer was rinsed, fresh medium was added, and the number of cells counted 4 days later. Preincubation of cells with YPQGN (SEQ ID NO: 3) inhibited the mitogenic effect of the 6-amino acid peptide.
# [2] = tested on: rats with mercuric chloride-induced acute renal failure; test: Mercuric chloride-induced acute renal failure in rats: survival and renal function; type: in vivo, rat; details: for survival 7 days later: single dose s.c. 1 hour after mercuric chloride
# Text: Nephrotoxic and ischemic acute renal failure (ARF) induced experimentally in rats have long been used to model this syndrome in humans. […] Male rats weighed 200-225 gm at the start of the experiment. This dose was used because preliminary experiments indicated it results in survival of 25-50% of the animals 7 days later. […] An increase in serum creatinine concentration signals a decline in renal function because the injured kidney is unable to excrete endogenous creatinine in the urine so it accumulates in the blood.
# The synthetic peptide […] (14-Ser) (SEQ ID NO: 15) (dissolved in sterile 0.01% bovine serum albumin in phosphate-buffered saline) was injected subcutaneously into rats to determine its effect on survival, recovery of renal fucntion, and stimulation of DNA synthesis. Multiple different peptides were studied including 14-Ser, […] (14-mer) (SEQ ID NO: 39), […] (16-mer) (SEQ ID NO: 4) […] (11-mer) (SEQ ID NO: 6), and […] (11-mer) (SEQ ID NO: 41). Different concentrations and times of administration were tested and compared.
# Acute tubular necrosis was induced in 44 rats by the subcutaneous (s.c.) injection of mercuric chloride, and a single dose of 14-ser was administered s.c. 1 hour afterwards. Different amounts of the peptide were given to assesses its capacity to affect the outcome. Survival 7 days later was about twice as high in animals given 100-150 μg of peptide (63%) than in rats given 0-75 μg peptide (29%).
# To determine the effect of the peptide on survival and recovery of renal function, acute tubular necrosis was induced in 59 rats; 29 received 14-Ser (100 μg/rat) and 30 received an equal volume of the vehicle s.c. 1 hour after administration of mercuric chloride. Enhanced survival (top panel) and renal functional recovery (bottom panel) of rats give a WGF-derived peptide after mercuric chloride-induced acute tubular necrosis are shown in FIG. 2A and FIG. 2B. Mercuric chloride was injected subcutaneously into each of the 59 rats, and 1 hour later 100 μg of WGF peptide (14-Ser) (n=29 rats) or the vehicle […] was given. Survival was greater in rats given the peptide than in animals receiving the vehicle as early as day 3 after administration of mercuric chloride. Blood was obtained from the tail vein on the days indicated, and serum creatinine concentration was measured. […] On days 2, 3 and 4, the lower creatinine concentration in peptide-treated rats indicates accelerated recovery of kidney function.
# Experimental ARF was induced in rats by subcutaneous injection of mercuric chloride. The synthetic peptide […] […] In one experiment a total of 17 rats were injected with a dose of mercuric chloride shown to induce ARF. The different amounts of the peptide (known to stimulate growth of kidney cells in culture) were injected into the animals to assess capacity to improve the outcome. […] In contrast, two of three rats given 100 micrograms of peptide were alive, as were five of six given 200 micrograms. In summary, none of eight rats (0%) given up to 50 micrograms of peptide survived, whereas seven of nine (78%) given 100-200 micrograms did. Thus, the 11-mer WGF peptide improves survival in nephrotoxic ARF.
# […] Four days later, 63% of rats given the 14-Ser peptide were alive compared to 25% of animals receiving the vehicle (chi squared, P-0.0499); 50% of rats receiving EGF were alive (chi squared, P=N.S.). On day 5, 50% of rats given EGF were alive, compared to 12.5% of animals given the vehicle (chi squared, P=0.0436). […] These observations indicate that the 14-Ser peptide and EGF given after renal injury are similar in their ability to improve survival from the ARF syndrome.
# [3] = tested on: rats with mercuric chloride-induced acute renal failure; test: as above; type: in vivo, rat; details: given 24 hours before mercuric chloride (EGF 20 μg, s.c.)
# BSC-1 cells [4] = test: Time of contact with cells required to commit them to accelerated growth (washout, count at four days); type: cell-based, African green monkey
# Method: Confluent monolayers of BSC-1 cells are prepared as herein and exposed to the 14-Ser peptide (0.5 μg/ml) for different amounts of time (0 to 30 minutes). At the end of the defined exposure period, culture medium containing the mitogen was aspirated, the monolayer was rinsed to remove non-adherent peptide, and fresh medium was added. Four days later the number of cells in the culture was counted.
# In these experiments a solution containing the peptide of interest was added to the cell monolayer; culture medium was then aspirated at a specified time thereafter. Then fresh medium without the peptide was added and the number of cells was counted four days later.
sequence,measurement,setting,value
AQPYPQGNHEASYG,reversal of TGF-β2 growth inhibition,BSC-1 cells [1],did not reverse growth inhibition
same,survival 7 days later,[2]; 0-75 μg peptide,29%
same,recovery of renal function on days 3 and 4,[2]; 100 μg/rat s.c. 1 hour after mercuric chloride,significantly more rapid recovery
same,serum creatinine concentration on day 2 compared to vehicle,"[2]; 100 μg/rat s.c. 1 hour after mercuric chloride, P=0.034",significantly lower
same,serum creatinine concentration on day 1,"[2]; 100 μg/rat s.c. 1 hour after mercuric chloride, basal 0.5, similar with vehicle",2.3 mg/dL
same,survival compared to vehicle 3 days after onset of ARF,"[2]; 100 μg/rat s.c. 1 hour after mercuric chloride, chi squared P=0.035",significantly greater
same,survival by day 7,"[2]; 100 μg/rat s.c. 1 hour after mercuric chloride, vehicle 20%",48%
same,survival on day 6,"[2]; 14-Ser 100 μg 1 hour after, EGF 20 μg 2 hours after mercuric chloride, vehicle 12%",37.5%
same,survival four days later,"[2]; 14-Ser 100 μg s.c. 1 hour after, EGF 20 μg s.c. 2 hours after mercuric chloride 2.25 mg/kg, vehicle 25%",63%
same,survival 7 days later,[2]; 100-150 μg of peptide,63%
same,renal function (serum creatinine) on day 3 compared to vehicle,"[2]; given 24 hours before mercuric chloride, P=0.039",significantly better
same,survival on day 4,[3]; listed as 14-Ser,71%
same,survival on day 4,[3]; listed as 14-Ser WGF-derived peptide,73%
same,exposure time for half-maximal stimulation,BSC-1 cells [4]; 14-Ser 0.5 μg/ml,1 min
same,maximal growth stimulation after 2 minutes exposure,"BSC-1 cells [4]; 14-Ser 0.5 μg/ml, count at four days",29%
same,exposure time sufficient for maximal growth stimulation (commitment time),"BSC-1 cells [4]; peptide then washed off, cells counted four days later",2 min
